Target: T1, MAGL (Homo sapiens, UniProt Q99685)
T1 sequence (Q99685 1-303): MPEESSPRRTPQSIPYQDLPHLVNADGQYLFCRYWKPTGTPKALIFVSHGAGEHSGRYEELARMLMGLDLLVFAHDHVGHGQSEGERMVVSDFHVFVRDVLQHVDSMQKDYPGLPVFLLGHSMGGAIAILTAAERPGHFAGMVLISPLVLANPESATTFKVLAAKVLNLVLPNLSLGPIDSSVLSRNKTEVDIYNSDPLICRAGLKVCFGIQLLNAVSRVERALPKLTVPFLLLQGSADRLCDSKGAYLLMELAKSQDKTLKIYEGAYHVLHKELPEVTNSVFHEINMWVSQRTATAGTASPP
Assay: 2-AG assay (MAGL inhibitory activity, hydrolysis of 2-arachidonoylglycerol to arachidonic acid followed by mass spectrometry)
Assay type: biochemical
Details: 8 μM 2-arachidonoylglycerol, 15 min pre-incubation, 30 min incubation at RT, RapidFire MS readout
In short: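 Arachidonic acid released from 8 μM 2-arachidonoylglycerol was quantified by online SPE triple-quadrupole MS (negative ESI, 303.1→259.1), normalised to d8-arachidonic acid internal standard. Reaction ran 30 min at RT after 15 min RT compound pre-incubation with […] MAGL in TRIS/EDTA/Tween-20 buffer, 2.5% DMSO.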

IC50 [nM]	SMILES
40.9	O=C(N1CC(/C=C/c2cccc(F)c2)C1)N1CC2(CC(n3cnc(C4CC4)n3)C2)C1 [Example 509, [6-(3-cyclopropyl-1,2,4-triazol-1-yl)-2-azaspiro[3.3]heptan-2-yl]-[3-[(E)-2-(3-fluorophenyl)vinyl]azetidin-1-yl]methanone]
4.57	O=C(N1CC2(CC(n3cnc(C4CC4)n3)C2)C1)N1CC2(CC(n3cnc(C4CC4)n3)C2)C1 [Example 510, bis[6-(3-cyclopropyl-1,2,4-triazol-1-yl)-2-azaspiro[3.3]heptan-2-yl]methanone]
168	O=C(N1CC2(CCC(Cc3ccc(OC(F)F)nc3)CC2)C1)N1CC2(CC(c3cncc(F)c3)C2)C1 [Example 511, [7-[[6-(difluoromethoxy)-3-pyridyl]methyl]-2-azaspiro[3.5]nonan-2-yl]-[6-(5-fluoro-3-pyridyl)-2-azaspiro[3.3]heptan-2-yl]methanone]
356	O=C(N1CC(Oc2ccc(C(F)(F)F)c(C3CC3)c2)C1)N1CC2(CC(c3cncc(F)c3)C2)C1 [Example 512]
2370	O=C(N1CC(OCc2ccc(F)cc2Cl)C1)N1CC2(CC(c3cncc(F)c3)C2)C1 [Example 513, [3-[(2-chloro-4-fluoro-phenyl)methoxy]azetidin-1-yl]-[6-(5-fluoro-3-pyridyl)-2-azaspiro[3.3]heptan-2-yl]methanone]
88.6	O=C(N1CC(NCc2ccc(C(F)(F)F)cc2Cl)C1)N1CC2(CC(c3cncc(F)c3)C2)C1 [Example 514, [3-[[2-chloro-4-(trifluoromethyl)phenyl]methylamino]azetidin-1-yl]-[6-(5-fluoro-3-pyridyl)-2-azaspiro[3.3]heptan-2-yl]methanone]
95.8	O=C(N1CC2(CC(Cc3ccc(C(F)(F)F)nc3)C2)C1)N1CC2(CC(c3cncc(F)c3)C2)C1 [Example 515, [6-(5-fluoro-3-pyridyl)-2-azaspiro[3.3]heptan-2-yl]-[6-[[6-(trifluoromethyl)-3-pyridyl]methyl]-2-azaspiro[3.3]heptan-2-yl]methanone]
699	O=C(N1CC2(CCC(Cc3ccc(F)cn3)CC2)C1)N1CC2(CC(c3ccc(C(F)(F)F)nc3)C2)C1 [Example 516, [7-[(5-fluoro-2-pyridyl)methyl]-2-azaspiro[3.5]nonan-2-yl]-[6-[6-(trifluoromethyl)-3-pyridyl]-2-azaspiro[3.3]heptan-2-yl]methanone]
299	O=C(N1CC2(CCC(Cc3ccc(Cl)cn3)CC2)C1)N1CC2(CC(c3ccc(C(F)(F)F)nc3)C2)C1 [Example 517, [7-[(5-chloro-2-pyridyl)methyl]-2-azaspiro[3.5]nonan-2-yl]-[6-[6-(trifluoromethyl)-3-pyridyl]-2-azaspiro[3.3]heptan-2-yl]methanone]
610	COc1cc(C(F)(F)F)ccc1CNC1CN(C(=O)N2CC3(CC(c4ccc(C(F)(F)F)nc4)C3)C2)C1 [Example 518, [3-[[2-methoxy-4-(trifluoromethyl)phenyl]methylamino]azetidin-1-yl]-[6-[6-(trifluoromethyl)-3-pyridyl]-2-azaspiro[3.3]heptan-2-yl]methanone]
154	O=C(N1CC2(CC(Cc3cnc(C(F)(F)F)cn3)C2)C1)N1CC2(CC(c3ccc(C(F)(F)F)nc3)C2)C1 [Example 519, [6-[[5-(trifluoromethyl)pyrazin-2-yl]methyl]-2-azaspiro[3.3]heptan-2-yl]-[6-[6-(trifluoromethyl)-3-pyridyl]-2-azaspiro[3.3]heptan-2-yl]methanone]
544	O=C(N1CC(OCc2ccc(S(=O)(=O)C(F)(F)F)cc2)C1)N1CC2(CC(c3ccc(C(F)(F)F)nc3)C2)C1 [Example 520, [6-[6-(trifluoromethyl)-3-pyridyl]-2-azaspiro[3.3]heptan-2-yl]-[3-[[4-(trifluoromethylsulfonyl)phenyl]methoxy]azetidin-1-yl]methanone]
379	O=C(N1CC2(CCC(Cc3ccc(OC(F)F)nc3)CC2)C1)N1CC2(CC(c3ccc(C(F)(F)F)nc3)C2)C1 [Example 521, [7-[[6-(difluoromethoxy)-3-pyridyl]methyl]-2-azaspiro[3.5]nonan-2-yl]-[6-[6-(trifluoromethyl)-3-pyridyl]-2-azaspiro[3.3]heptan-2-yl]methanone]
849	O=C(N1CC2(CC(c3ccc(C(F)(F)F)nc3)C2)C1)N1CC2(CC(c3ccc(C(F)(F)F)nc3)C2)C1 [Example 522, bis[6-[6-(trifluoromethyl)-3-pyridyl]-2-azaspiro[3.3]heptan-2-yl]methanone]
393	O=C(N1CC(c2ccc(N3CC(C(F)(F)F)C3)nc2)C1)N1CC2(CC(c3ccc(C(F)(F)F)nc3)C2)C1 [Example 523, [3-[6-[3-(trifluoromethyl)azetidin-1-yl]-3-pyridyl]azetidin-1-yl]-[6-[6-(trifluoromethyl)-3-pyridyl]-2-azaspiro[3.3]heptan-2-yl]methanone]
74.3	O=C(N1CC2(CC(Cc3ccc(C(F)(F)F)nc3)C2)C1)N1CC2(CC(c3ccc(C(F)(F)F)nc3)C2)C1 [Example 524, [6-[6-(trifluoromethyl)-3-pyridyl]-2-azaspiro[3.3]heptan-2-yl]-[6-[[6-(trifluoromethyl)-3-pyridyl]methyl]-2-azaspiro[3.3]heptan-2-yl]methanone]
698	O=C(N1CC2(CC(Oc3ccc(C(F)(F)F)nc3)C2)C1)N1CC2(CC(c3ccc(C(F)(F)F)nc3)C2)C1 [Example 525, [6-[6-(trifluoromethyl)-3-pyridyl]-2-azaspiro[3.3]heptan-2-yl]-[6-[[6-(trifluoromethyl)-3-pyridyl]oxy]-2-azaspiro[3.3]heptan-2-yl]methanone]
354	O=C(N1CC2(CC(c3ccc(C(F)(F)F)nc3)C2)C1)N1CC2(CN(Cc3ccc(S(=O)(=O)C(F)(F)F)cc3)C2)C1 [Example 526, [6-[6-(trifluoromethyl)-3-pyridyl]-2-azaspiro[3.3]heptan-2-yl]-[6-[[4-(trifluoromethylsulfonyl)phenyl]methyl]-2,6-diazaspiro[3.3]heptan-2-yl]methanone]
50.9	O=C(N1CC(c2ccc(NCC3(C(F)(F)F)CC3)nc2)C1)N1CC2(CC(c3ccc(C(F)(F)F)nc3)C2)C1 [Example 527]
245	O=C(N1CC(Oc2ccc(C(F)(F)F)c(C3CC3)c2)C1)N1CC2(CC(c3ccc(C(F)(F)F)nc3)C2)C1 [Example 528]
189	CS(=O)(=O)c1cccc(CC2CC3(C2)CN(C(=O)N2CC4(CC(c5ccc(C(F)(F)F)nc5)C4)C2)C3)c1 [Example 529, [6-[(3-methylsulfonylphenyl)methyl]-2-azaspiro[3.3]heptan-2-yl]-[6-[6-(trifluoromethyl)-3-pyridyl]-2-azaspiro[3.3]heptan-2-yl]methanone]
350	CS(=O)(=O)c1ccc(CC2CC3(C2)CN(C(=O)N2CC4(CC(c5ccc(C(F)(F)F)nc5)C4)C2)C3)cc1 [Example 530, [6-[(4-methylsulfonylphenyl)methyl]-2-azaspiro[3.3]heptan-2-yl]-[6-[6-(trifluoromethyl)-3-pyridyl]-2-azaspiro[3.3]heptan-2-yl]methanone]
1300	O=C(N1CC(NCc2ccc(C(F)(F)F)cc2Cl)C1)N1CC2(CC(c3ccc(C(F)(F)F)nc3)C2)C1 [Example 531]
131	CS(=O)(=O)c1ccc(CC2CC3(C2)CN(C(=O)N2CC4(CC(c5ccc(C(F)(F)F)nc5)C4)C2)C3)cc1C(F)(F)F [Example 532, [6-[[4-methylsulfonyl-3-(trifluoromethyl)phenyl]methyl]-2-azaspiro[3.3]heptan-2-yl]-[6-[6-(trifluoromethyl)-3-pyridyl]-2-azaspiro[3.3]heptan-2-yl]methanone]
813	O=C(N1CC(OCc2ccc(F)cc2Cl)C1)N1CC2(CC(c3ccc(C(F)(F)F)nc3)C2)C1 [Example 533, [3-[(2-chloro-4-fluoro-phenyl)methoxy]azetidin-1-yl]-[6-[6-(trifluoromethyl)-3-pyridyl]-2-azaspiro[3.3]heptan-2-yl]methanone]
1760	CC(C)c1ccc(N(C)c2ccc(C3CN(C(=O)N4CC5(CC(c6ccc(C(F)(F)F)nc6)C5)C4)C3)cn2)cc1 [Example 534, [3-[6-(4-isopropyl-N-methyl-anilino)-3-pyridyl]azetidin-1-yl]-[6-[6-(trifluoromethyl)-3-pyridyl]-2-azaspiro[3.3]heptan-2-yl]methanone]
170	O=C(N1CC2(CCC(Cc3ccc(C(F)(F)F)nc3)C2)C1)N1CC2(CC(c3ccc(C(F)(F)F)nc3)C2)C1 (centres unmarked) [Example 535, [6-[6-(trifluoromethyl)-3-pyridyl]-2-azaspiro[3.3]heptan-2-yl]-[6-[[6-(trifluoromethyl)-3-pyridyl]methyl]-2-azaspiro[3.4]octan-2-yl]methanone]
13.9	N#Cc1cc(CC2CC3(C2)CN(C(=O)N2CC4(CC(c5ccc(C(F)(F)F)nc5)C4)C2)C3)ccc1C(F)(F)F [Example 536, 2-(trifluoromethyl)-5-[[2-[6-[6-(trifluoromethyl)-3-pyridyl]-2-azaspiro[3.3]heptane-2-carbonyl]-2-azaspiro[3.3]heptan-6-yl]methyl]benzonitrile]
80.3	O=C(N1CC(c2ccc(-c3ccc(Cl)cc3Cl)cn2)C1)N1CC2(CC(c3ccc(C(F)(F)F)nc3)C2)C1 [Example 537, [3-[5-(2,4-dichlorophenyl)-2-pyridyl]azetidin-1-yl]-[6-[6-(trifluoromethyl)-3-pyridyl]-2-azaspiro[3.3]heptan-2-yl]methanone]

From patent US20240199587A1, “HETEROCYCLIC COMPOUNDS” (Hoffmann-La Roche Inc., priority 2021, published 2024)
